According to patent publication US5126336A, “Antibiotic C-3 catechol-substituted cephalosporin compounds, compositions and method of use thereof” (Bristol-Myers Squibb Company, priority 1990, dated 1992):
≈ marks a conversion by molar mass, not a printed value. Like-named read-outs stand apart in the source and are kept apart here.

Tests used:
[1] = tested on: Gp-Ib: Penicillin(PC)-resistant S. aureus (5); test: MIC, two-fold serial agar dilution, Gp-Ib; assay type: cell-based; details: 5 strains; for MIC: Staphylococcus aureus, read-out: Geometric mean of MIC
Procedure: (§1) Minimum inhibitory concentrations (MICs) of the present series of cephalosporins were determined against 32 strains of test organisms by two-fold serial agar dilution method in Mueller-Hinton agar. Geometric means of MICs were calculated against six groups of the test organisms which are classified as follows and summarized in Table 1.
Gp-Ib Penicillin(PC)-resistant S. aureus (5).

[2] = tested on: Gn-III: Ps. aeruginosa (7); test: MIC, two-fold serial agar dilution, Gn-III; assay type: cell-based; details: for MIC: Pseudomonas aeruginosa, read-out: Geometric mean of MIC
Procedure: as §1
Gn-III Ps. aeruginosa (7).

[3] = tested on: Gn-II: M.morganii (1), Ent. cloacae (2) and Ser. marcescens (2); test: MIC, two-fold serial agar dilution, Gn-II; assay type: cell-based; details: for MIC: read-out: Geometric mean of MIC
Procedure: as §1
Gn-II M.morganii (1), Ent. cloacae (2) and Ser.

P. aeruginosa A9843A [4] = test: MIC, agar dilution; assay type: cell-based
Procedure: as §1
(§2) In vivo antibacterial activity was determined against three bacterial infections (S. aureus Smith, E. coli Juhl and P. aeruginosa A9843A) by intramuscular administration to mice just after the bacterial challenge. PD50 values are summarized in Table 3 in comparsion with the MIC values against the corresponding organisms.
(§3) Medium; MuellerHinton agar (pH = 7.2)
(§4) Incubation temperature: 32° C., 18 hr
(§5) Inoculum size; 10^6 cells/ml

S. aureus Smith [5] = test: MIC, agar dilution; assay type: cell-based; details: S. aureus Smith (Table 3)
Procedure: as §1, §2, §3, §4, §5

E. coli Juhl A15119 = test: MIC, agar dilution; assay type: cell-based; details: E. coli Juhl (Table 3)
Procedure: as §1, §2, §3, §4, §5

E. coli Juhl = test: In vivo antibacterial activity, E. coli Juhl infection; details: mice, im just after bacterial challenge; for ED50: Escherichia coli, read-out: PD50
Procedure: as §2

P. aeruginosa A9843A [6] = test: In vivo antibacterial activity, P. aeruginosa A9843A infection; design: species or system mice; details: for ED50: Pseudomonas aeruginosa, A9843A, in Mus musculus, im, read-out: PD50
Procedure: as §2

[7] = tested on: Gp-Ia: Penicillin(PC)-sensitive S. aureus (5 strains); test: MIC, two-fold serial agar dilution, Gp-Ia; assay type: cell-based; details: for MIC: Staphylococcus aureus, read-out: Geometric mean of MIC
Procedure: as §1
Gp-Ia Penicillin(PC)-sensitive S. aureus (5 strains).

S. aureus Smith [8] = test: In vivo antibacterial activity, S. aureus Smith infection; details: mice, im just after bacterial challenge; for ED50: Staphylococcus aureus, read-out: PD50
Procedure: as §2

[9] = tested on: Gn-Ib: Cephalothin(CET)-resistant E. coli (3) and Kl. pneumoniae (2); test: MIC, two-fold serial agar dilution, Gn-Ib; assay type: cell-based; details: for MIC: Escherichia coli
Procedure: as §1
Gn-Ib Cephalothin(CET)-resistant E. coli (3) and Kl.

[10] = tested on: Gn-Ia: Cephalothin(CET)-sensitive E. coli (2), Kl. pneumoniae (1) and Pr. mirabilis (2); test: MIC, two-fold serial agar dilution, Gn-Ia; assay type: cell-based; details: 5 strains; for MIC: read-out: Geometric mean of MIC
Procedure: as §1
Gn-Ia Cephalothin(CET)-sensitive E. coli (2), Kl.
pneumoniae (1) and Pr. mirabilis (2).

[11] = Gn-III, 7 strains, Mueller-Hinton agar
[12] = Pseudomonas aeruginosa, A9843A, 18 h
[13] = Staphylococcus aureus, 18 h, read-out: MIC
[14] = Escherichia coli, JUHLA15119, 18 h, read-out: MIC
[15] = read-out: Geometric mean of MIC, Gn-Ib, 5 strains, Mueller-Hinton agar
[16] = read-out: Geometric mean of MIC, second run, Gn-Ib, 5 strains
[17] = Gn-II, 5 strains, Mueller-Hinton agar

SMILES	MIC ([1]; Mueller-Hinton agar)	MIC ([1]; second run)	MIC [2, 11]	MIC ([2]; second run, Gn-III, 7 strains)	MIC [3]	Geometric mean of MIC ([3]; second run, Gn-II, 5 strains)	MIC (P. aeruginosa A9843A [4]; [12])	MIC (S. aureus Smith [5]; [13])	MIC (E. coli Juhl A15119; [14])	ED50 (E. coli Juhl)	ED50 (P. aeruginosa A9843A [6])	MIC ([7]; Mueller-Hinton agar)	MIC ([7]; second run)	ED50 (S. aureus Smith [8])	MIC [9, 15]	MIC [9, 16]	MIC ([10]; Mueller-Hinton agar)	MIC ([10]; second run)	also measured
CC(C)(O/N=C(\C(=O)NC1C(=O)N2C(C(=O)[O-])=C(/C=C/C[N+]3(C)Cc4cc(O)c(O)cc4C3)CSC12)c1csc(N)n1)C(=O)O (stereo not drawn) [Compound Ia, 7-[(Z)-2-(2-Aminothiazol-4-yl)-2-(1-carboxy-1-methylethoxy-imino)acetamido]-3-[(E)-3-(5,6-dihydroxy-2-methyl-2-iso-indolinio)-1-propen-1-yl]-3-cephem-4-carboxylate]	12.5 µg/mL (≈ 19 µM)	13 µg/mL (≈ 19.7 µM)	1.3 µg/mL (≈ 1.97 µM)	0.33 µg/mL (≈ 0.501 µM)	0.69 µg/mL (≈ 1.05 µM)	0.69 µg/mL	1.6 µg/mL (≈ 2.43 µM)	12.5 µg/mL (≈ 19 µM)	0.8 µg/mL (≈ 1.21 µM)	0.008 mg/kg	2 mg/kg	12.5 µg/mL (≈ 19 µM)	13 µg/mL (≈ 19.7 µM)	0.86 mg/kg	0.23 µg/mL (≈ 0.349 µM)	0.23 µg/mL (≈ 0.349 µM)	0.2 µg/mL (≈ 0.304 µM)	0.23 µg/mL (≈ 0.349 µM)	
CC(C)(O/N=C(\C(=O)NC1C(=O)N2C(C(=O)[O-])=C(/C=C\C[N+]3(C)Cc4cc(O)c(O)cc4C3)CS[C@H]12)c1csc(N)n1)C(=O)O (stereo partly drawn) [Compound Ib, 7-[(Z)-2-(2-aminothiazol-4-yl)-2-(1-carboxy-1-methylethoxy-imino)acetamido]-3-[(Z)-3-(5,6-dihydroxy-2-methyl-2-isoindolinio)-1-propen-1-yl]-3-cephem-4-carboxylate]	50 µg/mL (≈ 75.9 µM)		1.4 µg/mL (≈ 2.13 µM)		0.91 µg/mL (≈ 1.38 µM)		1.6 µg/mL (≈ 2.43 µM)	25 µg/mL (≈ 38 µM)	0.8 µg/mL (≈ 1.21 µM)	0.1 mg/kg	2 mg/kg	25 µg/mL (≈ 38 µM)		3.8 mg/kg	0.26 µg/mL (≈ 0.395 µM)		0.46 µg/mL (≈ 0.698 µM)		
CO/N=C(\C(=O)NC1C(=O)N2C(C(=O)[O-])=C(/C=C/C[N+]3(C)Cc4cc(O)c(O)cc4C3)CS[C@H]12)c1csc(N)n1 (stereo partly drawn) [Compound Id, 7-[(Z)-2-(2-aminothiazol-4-yl)-2-methoxyiminoacetamido]-3-[(E)-3-(5,6-dihydroxy-2-methyl-2-isoindolinio)-1-propen-1-yl]-3-cephem-4-carboxylate]	3.1 µg/mL (≈ 5.28 µM)		2.6 µg/mL (≈ 4.43 µM)		0.79 µg/mL (≈ 1.35 µM)		3.1 µg/mL (≈ 5.28 µM)	1.6 µg/mL (≈ 2.73 µM)	0.4 µg/mL (≈ 0.682 µM)	0.012 mg/kg	6.8 mg/kg	1.6 µg/mL (≈ 2.73 µM)		0.33 mg/kg	0.46 µg/mL (≈ 0.784 µM)		0.15 µg/mL (≈ 0.256 µM)		
CO/N=C(\C(=O)NC1C(=O)N2C(C(=O)[O-])=C(/C=C\C[N+]3(C)Cc4cc(O)c(O)cc4C3)CS[C@H]12)c1csc(N)n1 (stereo partly drawn) [Compound Ie, 7-[(Z)-2-(2-amino-thiazol-4-yl)-2-methoxyiminoacetamido]-3-[(Z)-3-(5,6-dihydroxy-2-methyl-2-isoindolinio)-1-propen-1-yl]-3-cephem-4-carboxylate]	6.3 µg/mL (≈ 10.7 µM)		2.9 µg/mL (≈ 4.94 µM)				3.1 µg/mL (≈ 5.28 µM)	6.3 µg/mL (≈ 10.7 µM)	0.2 µg/mL (≈ 0.341 µM)	0.025 mg/kg	9.9 mg/kg	4.7 µg/mL (≈ 8.01 µM)		0.72 mg/kg	0.26 µg/mL (≈ 0.443 µM)		0.13 µg/mL (≈ 0.222 µM)		MIC [3, 17]: 0.91 µg/mL (≈ 1.55 µM)
CC(C)(O/N=C(\C(=O)NC1C(=O)N2C(C(=O)O)=C(/C=C/Cn3ccc4cc(=O)c(O)cc-4c3)CS[C@H]12)c1csc(N)n1)C(=O)O (stereo partly drawn) [Iv, 7-[(Z)-2-(2-Aminothiazol-4-yl)-2-(1-carboxy-1-methylethoxyimino)acetamido]-3-[(E)-3-(2,6-dihydro-7-hydroxy-6-oxo-isoquinolin-2-yl)-1-propen-1-yl]-3-cephem-4-carboxylic acid]	16 µg/mL (≈ 24.4 µM)	16 µg/mL (≈ 24.4 µM)		0.15 µg/mL (≈ 0.229 µM)	0.076 µg/mL (≈ 0.116 µM)	0.076 µg/mL	0.1 µg/mL (≈ 0.153 µM)	12.5 µg/mL (≈ 19.1 µM)	0.1 µg/mL (≈ 0.153 µM)	0.019 mg/kg	0.17 mg/kg	12.5 µg/mL (≈ 19.1 µM)	16 µg/mL (≈ 24.4 µM)	0.98 mg/kg	0.0072 µg/mL (≈ 0.011 µM)	0.0083 µg/mL (≈ 0.0127 µM)	0.017 µg/mL (≈ 0.026 µM)	0.0094 µg/mL (≈ 0.0144 µM)	MIC [2]: 0.11 µg/mL (≈ 0.168 µM)
CO/N=C(\C(=O)NC1C(=O)N2C(C(=O)O)=C(/C=C/Cn3ccc4cc(=O)c(O)cc-4c3)CS[C@H]12)c1csc(N)n1 (stereo partly drawn) [Iw, 7-[(Z)-2-(2-Aminothiazol-4-yl)-2-methoxyimino-acetamido]-3-[(E)-3-(2,6-dihydro-7-hydroxy-6-oxo-isoquino-lin-2-yl)-1-propen-1-yl]-3-cephem-4-carboxylic acid]																			Geometric mean of MIC ([1]; Mueller-Hinton agar): 1.4 µg/mL; Geometric mean of MIC [2, 11]: 13.0 µg/mL; Geometric mean of MIC [3, 17]: 0.13 µg/mL; MIC (P. aeruginosa A9843A [4]; P. aeruginosa 9843A (Table 3)): 12.5 µg/mL (≈ 21.5 µM); MIC (S. aureus Smith [5]): 0.8 µg/mL (≈ 1.37 µM); MIC (E. coli Juhl A15119): 0.1 µg/mL (≈ 0.172 µM); PD50 (E. coli Juhl): 0.19 mg/kg; PD50 (P. aeruginosa A9843A [6]; mice, im just after bacterial challenge, P. aeruginosa 9843A): 0.39 mg/kg; Geometric mean of MIC ([7]; Mueller-Hinton agar): 0.8 µg/mL; PD50 (S. aureus Smith [8]): 0.18 mg/kg; Geometric mean of MIC ([9]; Gn-Ib, 5 strains, Mueller-Hinton agar): 0.022 µg/mL; Geometric mean of MIC ([10]; Mueller-Hinton agar): 0.015 µg/mL
